Reference: US20220356174A1, “PYRIDIN-2-ONE COMPOUNDS USEFUL AS SMARCA2 ANTAGONISTS” (Epizyme, Inc., priority 2018, published 2022)
pIC50: −log10 of the molar value. Where two headings read alike, the source gives them in different places.

What was measured:
FL-SMARCA4 = FL-SMARCA4 (Homo sapiens, UniProt P51532); assay: SMARCA4 ATPase activity assay (ADP-Glo, chicken mononucleosome substrate)
[1] = molecular target: T1, FL-SMARCA2 (full-length human SMARCA2 isoform 1) (Homo sapiens, UniProt P51531); assay: SMARCA2 ATPase activity assay (ADP-Glo, chicken mononucleosome substrate); format: biochemical; settings: ATPase assay, enzyme 5 nM, ATP 250 uM, chicken mononucleosome 10 nM, 30 min preincubation
T1 construct: FLAG tag (YKDDDDK) (C); made in house; host or cells: Sf21 insect cells (baculovirus, pFastBacI)
T1 sequence (P51531 with tags, fused parts or gaps): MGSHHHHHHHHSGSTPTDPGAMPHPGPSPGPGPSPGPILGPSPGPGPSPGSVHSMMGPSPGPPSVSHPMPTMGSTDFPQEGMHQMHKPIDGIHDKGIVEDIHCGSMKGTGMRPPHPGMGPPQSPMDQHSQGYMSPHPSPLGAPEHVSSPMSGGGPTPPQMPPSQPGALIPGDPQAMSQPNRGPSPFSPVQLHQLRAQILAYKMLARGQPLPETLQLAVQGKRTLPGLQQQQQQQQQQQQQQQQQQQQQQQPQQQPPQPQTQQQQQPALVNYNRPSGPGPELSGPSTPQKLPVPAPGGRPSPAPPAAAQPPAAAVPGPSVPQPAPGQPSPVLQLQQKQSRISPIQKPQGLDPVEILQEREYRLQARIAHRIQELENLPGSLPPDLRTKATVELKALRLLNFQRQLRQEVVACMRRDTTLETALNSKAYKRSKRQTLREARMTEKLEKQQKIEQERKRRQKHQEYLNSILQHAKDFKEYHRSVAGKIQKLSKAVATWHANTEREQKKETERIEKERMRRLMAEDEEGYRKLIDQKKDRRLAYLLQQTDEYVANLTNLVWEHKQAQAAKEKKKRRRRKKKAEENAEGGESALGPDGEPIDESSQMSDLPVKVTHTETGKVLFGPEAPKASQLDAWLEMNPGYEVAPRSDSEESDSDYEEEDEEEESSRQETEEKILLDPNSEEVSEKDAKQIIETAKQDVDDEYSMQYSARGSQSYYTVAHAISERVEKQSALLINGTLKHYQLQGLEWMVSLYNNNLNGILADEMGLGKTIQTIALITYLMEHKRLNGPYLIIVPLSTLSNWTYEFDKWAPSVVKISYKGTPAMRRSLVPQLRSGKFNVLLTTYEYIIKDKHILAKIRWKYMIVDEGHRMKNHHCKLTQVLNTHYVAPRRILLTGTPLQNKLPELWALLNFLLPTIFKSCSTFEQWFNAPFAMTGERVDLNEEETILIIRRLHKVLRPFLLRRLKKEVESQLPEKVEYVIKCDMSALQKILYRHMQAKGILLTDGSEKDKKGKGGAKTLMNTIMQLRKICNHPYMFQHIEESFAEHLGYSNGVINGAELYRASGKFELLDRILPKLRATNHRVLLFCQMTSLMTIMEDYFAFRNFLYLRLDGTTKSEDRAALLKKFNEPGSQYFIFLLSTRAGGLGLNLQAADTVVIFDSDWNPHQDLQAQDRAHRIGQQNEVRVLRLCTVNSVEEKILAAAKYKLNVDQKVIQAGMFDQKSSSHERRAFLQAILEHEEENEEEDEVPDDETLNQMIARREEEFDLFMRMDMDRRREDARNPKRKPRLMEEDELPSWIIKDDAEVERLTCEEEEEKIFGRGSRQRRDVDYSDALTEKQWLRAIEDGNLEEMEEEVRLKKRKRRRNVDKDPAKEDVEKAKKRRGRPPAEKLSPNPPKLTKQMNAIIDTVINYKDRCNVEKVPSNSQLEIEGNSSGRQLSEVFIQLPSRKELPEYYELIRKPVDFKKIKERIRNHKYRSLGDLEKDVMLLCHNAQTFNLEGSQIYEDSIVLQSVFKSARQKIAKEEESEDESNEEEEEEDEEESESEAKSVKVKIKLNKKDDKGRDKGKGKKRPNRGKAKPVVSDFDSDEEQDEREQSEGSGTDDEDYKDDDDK

SMARCA2 = molecular target: T2, SMARCA2 (Homo sapiens, UniProt P51531); assay: SMARCA2 FRET nucleosome remodeling activity assay; format: biochemical
T2 construct: FLAG tag (YKDDDDK) (C); made in house; host or cells: Sf21 insect cells (baculovirus, pFastBacI)
T2 sequence (P51531 with tags, fused parts or gaps): as above
Procedure: The SMARCA2 remodeling assay was initiated by the addition of 2 uL of a nucleosome remodeling assay substrate and ATP mixture (final volume=10 uL). […] The assays were terminated after 15 minutes by the addition of 2 uL EDTA (final concentration of 25 mM). The SMARCA2 remodeling activity was determined by measuring the fluorescence ratio of the Cy3 and Cy5 labels ([…]). The remodeling of the nucleosome substrate causes an increase in the spacing between the Cy3 and Cy5 labels and therefore a reduction in FRET and an increase in Cy3/Cy5 fluorescence ratio.

A549 cells [2] = assay: Long term proliferation (LTP) assay, day 15 IC50 in A549 cells; format: cell-based; settings: Homo sapiens, 360 h
A549 cells [3] = assay: High-throughput proliferation (HTP) assay for A549 cells (CellTiter-Glo, 7 days); format: cell-based; settings: Homo sapiens, 168 h, read-out: A549 SMARCA2 IC50
Procedure, shortened: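 Seven-day growth of A549 (62.5 cells/well, F12K with 10% HI-FBS, 37° C.) with compound, read by CellTiter-Glo ATP luminescence. Percent inhibition scaled between DMSO wells and 10 μM Doxorubicin wells, then fitted for EC50 and IC50.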

H358 cells = assay: High-throughput proliferation (HTP) assay for H358 cells (CellTiter-Glo, 7 days); format: cell-based; settings: Homo sapiens, NCI-H358, 168 h, read-out: H358 SMARCA2 IC50
Procedure, shortened: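 Cells were plated at 1,000 cells/well in RPMI 1640 + 10% HI-FBS + 1% pen/strep on pre-dispensed compound and incubated 7 days at 37 °C, 5% CO2. Viability was read as ATP luminescence with CellTiter-Glo after 30 min at RT. DMSO served as 0% and 10 µM doxorubicin as 100% inhibition for EC50/IC50.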

[4] = FL-SMARCA4 IC50, Table 3.2, ATPase assay, enzyme 5 nM, ATP 250 uM, chicken mononucleosome 10 nM, 30 min preincubation
[5] = FL-SMARCA4 IC>50, Table 3c.2, ATPase assay, enzyme 5 nM, ATP 250 uM, chicken mononucleosome 10 nM, 30 min preincubation

Sequence of FL-SMARCA4 (P51532 whole entry, canonical isoform): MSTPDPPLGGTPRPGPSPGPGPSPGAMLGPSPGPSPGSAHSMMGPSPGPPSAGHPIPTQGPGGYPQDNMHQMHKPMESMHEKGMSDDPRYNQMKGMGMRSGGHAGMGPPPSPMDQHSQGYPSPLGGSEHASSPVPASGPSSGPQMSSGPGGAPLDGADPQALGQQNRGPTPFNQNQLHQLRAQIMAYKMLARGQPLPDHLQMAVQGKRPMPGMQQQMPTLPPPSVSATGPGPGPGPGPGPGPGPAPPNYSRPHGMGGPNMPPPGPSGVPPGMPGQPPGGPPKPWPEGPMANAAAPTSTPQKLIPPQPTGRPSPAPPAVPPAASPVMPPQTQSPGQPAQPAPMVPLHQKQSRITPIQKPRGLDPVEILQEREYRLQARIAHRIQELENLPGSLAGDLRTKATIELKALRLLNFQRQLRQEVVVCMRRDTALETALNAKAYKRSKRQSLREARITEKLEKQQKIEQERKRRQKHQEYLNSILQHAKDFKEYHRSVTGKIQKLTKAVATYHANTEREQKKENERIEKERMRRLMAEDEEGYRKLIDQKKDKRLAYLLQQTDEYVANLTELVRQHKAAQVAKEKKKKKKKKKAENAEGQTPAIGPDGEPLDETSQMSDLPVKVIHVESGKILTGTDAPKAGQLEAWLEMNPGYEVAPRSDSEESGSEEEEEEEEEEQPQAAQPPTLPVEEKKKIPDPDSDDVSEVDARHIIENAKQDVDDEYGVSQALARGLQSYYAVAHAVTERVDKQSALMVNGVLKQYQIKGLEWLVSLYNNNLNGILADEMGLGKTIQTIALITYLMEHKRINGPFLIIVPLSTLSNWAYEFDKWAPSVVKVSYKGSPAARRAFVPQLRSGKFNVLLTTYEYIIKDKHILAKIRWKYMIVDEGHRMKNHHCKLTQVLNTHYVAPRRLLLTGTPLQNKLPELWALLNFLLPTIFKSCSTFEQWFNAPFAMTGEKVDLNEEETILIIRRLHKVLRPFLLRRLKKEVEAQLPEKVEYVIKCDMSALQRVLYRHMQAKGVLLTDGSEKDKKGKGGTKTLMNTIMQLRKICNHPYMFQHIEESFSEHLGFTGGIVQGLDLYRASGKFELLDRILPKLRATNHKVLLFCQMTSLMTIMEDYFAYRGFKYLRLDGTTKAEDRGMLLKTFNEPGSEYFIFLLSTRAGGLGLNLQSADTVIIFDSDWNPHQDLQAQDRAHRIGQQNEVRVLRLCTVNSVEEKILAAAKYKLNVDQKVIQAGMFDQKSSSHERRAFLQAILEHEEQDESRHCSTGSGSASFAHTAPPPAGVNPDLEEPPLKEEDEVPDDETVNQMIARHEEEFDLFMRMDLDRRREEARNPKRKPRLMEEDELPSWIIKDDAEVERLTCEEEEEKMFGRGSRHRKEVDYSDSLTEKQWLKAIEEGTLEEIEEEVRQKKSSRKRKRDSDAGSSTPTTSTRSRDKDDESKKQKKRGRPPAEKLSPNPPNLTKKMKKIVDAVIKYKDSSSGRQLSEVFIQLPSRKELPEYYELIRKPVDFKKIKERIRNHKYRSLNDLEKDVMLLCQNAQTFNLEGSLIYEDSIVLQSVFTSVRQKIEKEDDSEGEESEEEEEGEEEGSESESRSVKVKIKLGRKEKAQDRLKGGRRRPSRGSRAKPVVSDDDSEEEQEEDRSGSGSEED

Structure (SMILES)	pIC50 (FL-SMARCA4; [4])	pIC50 ([1]; Table 3.1)	pIC50 (SMARCA2)	pIC50 (A549 cells [2])	pIC50 (FL-SMARCA4; FL-SMARCA4 IC50)	pIC50 ([1]; Table 3d.1, read-out: FL-SMARCA2 IC>50)	pIC50 (A549 cells [3])	pIC50 (FL-SMARCA4; [5])	pIC50 ([1]; Table 3c.1)	pIC50 (H358 cells)
Cc1cc(C#Cc2cc(C(=O)Nc3cc(F)c(=O)n(CC(F)F)c3)sc2Cl)sn1 [Compound 64c]	–	–	–	7.06	–	–	6.43	7.53	8.06	< 5.00
O=C(Nc1ccc(=O)n(CCF)c1)c1cc(Cl)c(Cl)s1 [Compound 80]	6.12	6.68	–	5.20	–	–	4.94	–	–	–
N#Cc1sc(C(=O)Nc2cc(F)c(=O)n(CC(F)F)c2)cc1C(F)(F)F [Compound 96c]	–	–	–	≤ 5.00	–	–	< 5.00	4.53	4.98	< 5.00
O=C(Nc1cc(Cl)c(=O)n(CCF)c1)c1cc(Cl)c(Cl)s1 [Compound 101]	6.62	7.13	6.50	6.45	–	–	5.64	–	–	–
CCn1cc(NC(=O)c2cnc(C#N)s2)cc(Cl)c1=O [Compound 136]	6.73	7.24	7.54	–	–	–	–	–	–	–
O=C(Nc1cc(F)c(=O)n(CC(F)(F)F)c1)c1cc(Cl)c(Cl)s1 [Compound 141]	6.45	7.03	6.40	–	–	–	–	–	–	–
O=C(Nc1cc(F)c(=O)n(CC(F)(F)F)c1)c1cnc(Cl)s1 [Compound 143]	6.48	6.92	6.77	–	–	–	–	–	–	–
N#Cc1ncc(C(=O)Nc2cc(Cl)c(=O)n(CCF)c2)s1 [Compound 148]	–	7.90	7.65	–	–	–	≤ 4.70	–	–	–
CCn1cc(NC(=O)c2cnc(C#N)s2)cc(F)c1=O [Compound 150]	7.02	7.57	7.66	–	–	–	–	–	–	–
N#Cc1cc(C#Cc2cc(C(=O)Nc3cc(F)c(=O)n(CC(F)F)c3)sc2Cl)ccn1 [Compound 151c]	–	–	–	–	–	–	6.05	6.96	7.53	5.31
CNC(=O)c1cc(C#Cc2cc(C(=O)Nc3cc(F)c(=O)n(CC(F)F)c3)sc2Cl)nn1C [Compound 154c]	–	–	–	–	–	–	< 5.00	6.83	7.15	< 5.00
O=C(Nc1cc(C2COC2)c(=O)n(CC(F)F)c1)c1cc(F)c(Cl)s1 [Compound 155c]	–	–	–	–	–	–	< 5.00	4.44	4.51	< 5.00
N#Cc1sc(C(=O)Nc2cc(F)c(=O)n(CC(F)F)c2)cc1C#CC1COC1 [Compound 177c]	–	–	–	–	–	–	5.86	7.10	7.90	< 5.00
N#Cc1cc(C(=O)Nc2cc(F)c(=O)n(CCF)c2)sc1C#N [Compound 189]	7.47	8.04	7.63	–	–	–	5.01	–	–	–
N#Cc1cc(C(=O)Nc2cc(F)c(=O)n(CCF)c2)sc1Cl [Compound 196]	6.74	7.42	7.74	–	–	–	6.22	–	–	–
O=C(Nc1cc(F)c(=O)n(CCF)c1)c1cc(F)c(F)s1 [Compound 259]	6.64	7.29	–	6.75	–	–	5.61	–	–	–
O=C(Nc1cc(F)c(=O)n(CC(F)F)c1)c1cc(F)c(Cl)s1 [Compound 323]	7.17	7.72	–	6.97	–	–	6.50	–	–	–
O=C(Nc1cc(F)c(=O)n(CCF)c1)c1cc(F)c(C(F)F)s1 [Compound 324]	6.86	7.46	–	6.55	–	–	–	–	–	–
C#Cc1cc(NC(=O)c2cc(F)c(Cl)s2)cn(CC(F)F)c1=O [Compound 342]	6.13	6.56	–	–	–	–	5.02	–	–	< 5.00
O=C(Nc1cc(F)c(=O)n(CC(F)F)c1)c1cc(C#Cc2cncnc2)c(Cl)s1 [Compound 346]	6.22	6.74	–	–	–	–	5.28	–	–	< 5.00

Second part, the compound after the results:

pIC50 (FL-SMARCA4; [4])	pIC50 ([1]; Table 3.1)	pIC50 (SMARCA2)	pIC50 (A549 cells [2])	pIC50 (FL-SMARCA4; FL-SMARCA4 IC50)	pIC50 ([1]; Table 3d.1, read-out: FL-SMARCA2 IC>50)	pIC50 (A549 cells [3])	pIC50 (FL-SMARCA4; [5])	pIC50 ([1]; Table 3c.1)	pIC50 (H358 cells)	Structure (SMILES)
4.40	5.56	5.15	–	–	–	–	–	–	–	CCn1cc(NC(=O)c2cc(Cl)c(Cl)n2C)ccc1=O [Compound 1]
–	–	–	≤ 4.52	< 4.30	< 4.30	–	–	–	–	CCn1cc(NC(=O)c2cc(Cl)c(Cl)s2)ncc1=O [Compound 18d]
–	5.90	–	4.82	–	–	–	–	–	–	CCn1cc(NC(=O)c2cc(Cl)c(Cl)s2)ccc1=O [Compound 43]
–	< 4.30	–	≤ 4.52	–	–	–	–	–	–	Cn1c(C(=O)Nc2ccc(=O)n(-c3ccccc3)c2)cc(Cl)c1Cl [Compound 47]
–	–	–	7.05	–	–	6.26	7.57	8.09	< 5.00	Cc1ncc(C#Cc2cc(C(=O)Nc3cc(F)c(=O)n(CC(F)F)c3)sc2Cl)o1 [Compound 62c]
6.79	7.10	6.65	–	–	–	–	–	–	–	CCn1cc(NC(=O)c2cc(Cl)c(C#N)s2)cc(F)c1=O [Compound 128]
6.71	7.29	6.94	–	–	–	6.04	–	–	–	O=C(Nc1cc(F)c(=O)n(CCF)c1)c1cc(Cl)c(Cl)s1 [Compound 129]
6.52	6.95	6.77	–	–	–	–	–	–	–	N#Cc1sc(C(=O)Nc2cc(Cl)c(=O)n(CC(F)(F)F)c2)cc1Cl [Compound 131]
6.95	7.59	7.54	–	–	–	–	–	–	–	N#Cc1ncc(C(=O)Nc2cc(Cl)c(=O)n(CC(F)(F)F)c2)s1 [Compound 137]
6.83	7.33	7.05	–	–	–	5.90	–	–	–	N#Cc1sc(C(=O)Nc2cc(F)c(=O)n(CC(F)(F)F)c2)cc1Cl [Compound 140]
5.93	6.61	5.90	–	–	–	–	–	–	–	Cn1c(C(=O)Nc2cc(F)c(=O)n(CC(F)(F)F)c2)cc(Cl)c1Cl [Compound 144]
4.92	5.52	5.30	–	–	–	–	–	–	–	O=C(Nc1ccc(=O)n(CC(F)(F)F)c1)c1cc(Cl)n[nH]1 [Compound 145]
5.45	5.99	5.59	–	–	–	–	–	–	–	CCn1cc(NC(=O)c2cc(Cl)n[nH]2)cc(Cl)c1=O [Compound 146]
7.17	7.69	7.54	–	–	–	–	–	–	–	N#Cc1ncc(C(=O)Nc2cc(F)c(=O)n(CC(F)(F)F)c2)s1 [Compound 151, 2-Cyano-N-(5-fluoro-6-oxo-1-(2,2,2-trifluoroethyl)-1,6-dihydropyridin-3-yl)thiazole-5-carboxamide]
–	–	–	–	–	–	< 5.00	6.36	6.68	5.16	O=C1CCC(C#Cc2cc(C(=O)Nc3cc(F)c(=O)n(CC(F)F)c3)sc2Cl)CN1 (stereo not shown) [Compound 153c]
< 4.30	< 4.30	–	≤ 5.00	–	–	–	–	–	–	N#Cc1ncc(C(=O)Nc2cc(F)c(=O)n(CC(F)(F)F)c2)o1 [Compound 267]
7.06	7.57	8.04	–	–	–	6.03	–	–	–	N#Cc1sc(C(=O)Nc2cc(F)c(=O)n(CC(F)F)c2)cc1Cl [Compound 285]
6.17	6.87	6.39	–	–	–	–	–	–	–	O=C(Nc1cc(F)c(=O)n(CCF)c1)c1cc(Cl)c(C(F)F)s1 [Compound 290]
6.13	6.76	6.30	–	–	–	–	–	–	–	O=C(Nc1cc(F)c(=O)n(CCF)c1)c1cnc(C(F)F)s1 [Compound 295]
6.35	7.12	–	–	–	–	5.68	–	–	< 5.00	O=C(Nc1cc(F)c(=O)n(CC(F)F)c1)c1cnc(C(F)(F)F)s1 [Compound 297, N-(1-(2,2-difluoroethyl)-5-fluoro-6-oxo-1,6-dihydropyridin-3-yl)-2-(trifluoromethyl)thiazole-5-carboxamide]
6.79	7.45	–	6.51	–	–	–	–	–	–	O=C(Nc1cc(F)c(=O)n(CC(F)F)c1)c1cc(F)c(C(F)F)s1 [Compound 325]
6.97	7.64	–	–	–	–	6.31	–	–	< 5.00	O=C(Nc1cc(F)c(=O)n(CC(F)F)c1)c1cc(C#CC2COC2)c(Cl)s1 [Compound 343]
7.42	7.78	–	7.24	–	–	6.45	–	–	< 5.00	O=C(Nc1cc(F)c(=O)n(CC(F)F)c1)c1cc(C#Cc2ccncc2)c(Cl)s1 [Compound 345]
